Measured values from PMC11865978, “Cellular Activity of CQWW Nullomer-Derived Peptides” (ACS Omega, 2025).

Tests used:
Assay type in all cases: cell-based, human
Settings in all cases: 72 h
GCGR-NS9FB_B = tested on: GCGR-NS9FB_B
Procedure: (§1) Peptides were tested in an automated image-based high-content[42] cell painting[43],[44] assay that was originally developed to explore the mechanism of action of pharmacological and genetic perturbations within cells,[45] as well as a live cell imaging assay against six patient-derived glioblastoma cell lines (GCGR-E13, GCGR-E28, GCGR-E21, GCGR-E57, GCGR-E31, and GCGR-E34), covering classical, mesenchymal, and proneural subtypes, respectively (see Methods and Figure 1B–D), along with a healthy human fetal neuronal stem cell line (GCGR-NS9FB_B).
(§2) Cell survival was quantified by nuclei counts from the Hoechst dye-stained nuclei and IC50 values calculated along with 95% confidence intervals (Figure 1B; see Table S2 for full details). […]
(§3) High Content Phenotypic Screening assays
(§4) Cell lines (glioma stem cell lines and normal foetal neural stem cells) were seeded on laminin (10 µg/mL) coated 384-well plates (Greiner Bio-One, 781091) at 1,000 cells/well and incubated overnight at 37 °C and 5% CO2. Aqueous peptide solutions (10 mM) were further diluted to 1 mM in water containing 10 % glycerol and 0.01 % TX-100. Cells were dosed using a D300 digital dispenser (Tecan) by 10-point dose response (30 µM – 1 µM) in triplicate and with aqueous glycerol/TX-100 as control. The cells were placed in an IncuCyte live cell imager (Essen BioScience) and imaged every three hours for 72 hours. Prior to fixation, the plates were removed from the IncuCyte and stained with Mitrotracker DeepRed (Invitrogen, M22426, 300 nM, 30 minutes). Cells were then fixed using 4 % formaldehyde and permeabilized with 0.1 % TX-100 in PBS. The cells were stained with ‘Cell Painting’ […]
(§5) assay reagents1: Hoechst 33342 (10 mg/mL stock, Molecular Probes, 1:5000), SYTO14 […]
(§6) BSA/PBS. The plates were imaged using an ImageXpress high content microscope (Molecular Devices). Cells were imaged with a 20× objective, covering 6 fields-of-view in each well. The data was then analyzed using a custom CellProfiler software pipeline using the University of Edinburgh high performance computing cluster. Dose response plots were calculated using HC StratomineR (corelifeanalytics.com). Nuclei count data was analyzed separately to generate cell survival metrics (normalized to aqueous glycerol/TX -100 control). […]

GCGR-E57 = tested on: GCGR-E57
Procedure: as §1, §2, §3, §4, §5, §6

GCGR-E21 = tested on: GCGR-E21
Procedure: as §1, §2, §3
(§7) Cell lines (glioma stem cell lines and normal foetal neural stem cells) were seeded on laminin (10 µg/mL) coated 384-well plates (Greiner Bio-One, 781091) at 1,000 cells/well and incubated overnight at 37 °C and 5% CO2. Aqueous peptide solutions (10 mM) were further diluted to 1 mM in water containing 10 % glycerol and 0.01 % TX-100. […]
(§8) The cells were placed in an IncuCyte live cell imager (Essen BioScience) and imaged every three hours for 72 hours. Prior to fixation, the plates were removed from the IncuCyte and stained with Mitrotracker DeepRed (Invitrogen, M22426, 300 nM, 30 minutes). Cells were then fixed using 4 % formaldehyde and permeabilized with 0.1 % TX-100 in PBS. The cells were stained with ‘Cell Painting’ […]
as §5, §6

GCGR-E13 = tested on: GCGR-E13
Procedure: as §1, §2, §3, §7, §8, §5, §6

GCGR-E34 = tested on: GCGR-E34
Procedure: as §1, §2, §3, §7, §8, §5, §6

H-RRRRRCQWW-NH2 [Peptide 2] gave an IC50 (GCGR-NS9FB_B) of 7.9 µM, an IC50 (GCGR-E57) of 4.3 µM and an IC50 (GCGR-E21) of 4.8 µM. The IC50 (GCGR-E13) was 4.4 µM and the IC50 (GCGR-E34) was 5.2 µM.
